Laboratory results taken from publication PMC7194015, “Proline-Rich Antimicrobial Peptides in Medicinal Maggots of Lucilia sericata Interact With Bacterial DnaK But Do Not Inhibit Protein Synthesis” (Frontiers in Pharmacology, 2020).
Ends that are not written are not given here.

Experiments:
bacterial chaperone DnaK = target: T1, bacterial chaperone DnaK (Escherichia coli, UniProt P0A6Y8); assay: FRET assay, DnaK-binding (fluorescence quenching with DnaK-BHQ10); conditions: for maximum quenching effect: n = 3; for Kd: N-terminal 5(6)-carboxyfluorescein, C-terminal amide, quenching assay, non-linear regression (SlideWrite v7.01)
T1 construct: made in house
T1 sequence (P0A6Y8 whole entry): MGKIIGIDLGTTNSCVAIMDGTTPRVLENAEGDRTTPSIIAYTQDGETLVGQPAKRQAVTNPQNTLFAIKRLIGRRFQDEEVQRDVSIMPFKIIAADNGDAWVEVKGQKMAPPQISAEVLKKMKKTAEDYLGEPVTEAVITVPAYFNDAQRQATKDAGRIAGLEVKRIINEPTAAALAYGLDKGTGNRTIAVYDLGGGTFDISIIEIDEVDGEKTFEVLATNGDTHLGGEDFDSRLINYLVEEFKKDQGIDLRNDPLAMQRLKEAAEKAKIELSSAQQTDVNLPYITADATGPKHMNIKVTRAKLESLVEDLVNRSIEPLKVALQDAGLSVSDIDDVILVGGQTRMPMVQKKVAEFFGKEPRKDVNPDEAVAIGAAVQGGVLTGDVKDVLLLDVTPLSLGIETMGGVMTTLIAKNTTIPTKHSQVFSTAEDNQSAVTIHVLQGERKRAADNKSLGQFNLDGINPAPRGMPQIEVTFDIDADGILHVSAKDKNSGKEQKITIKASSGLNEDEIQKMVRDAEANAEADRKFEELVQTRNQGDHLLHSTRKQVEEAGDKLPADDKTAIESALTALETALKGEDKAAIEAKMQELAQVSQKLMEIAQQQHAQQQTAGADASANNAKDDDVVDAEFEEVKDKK
Procedure: Lser-stomoxyn, Lser-PRP2, and Lser-PRP3 were synthesized by PANATecs (Tübingen, Germany) at >95% purity with C-terminal amidation (Table 1). For the quenching assay, Lser-PRP2 and Lser-PRP3 were synthesized with N-terminal 5(6)-carboxyfluorescein and C-terminal amidation. DnaK was produced by Michael Zahn ([Knappe et al., 2011]). The Black Hole Quencher 10 succinimidyl ester (BHQ10-NHS ester, > 75% purity) was purchased from BioCat (Heidelberg, Germany).
DnaK (2 mg/ml) was dialyzed against the modifying buffer (20 mM Na2HPO4, 20 mM KH2PO4, 5 mM MgCl2, 150 mM KCl; pH 7.4) before labeling with a 10-fold molar excess of BHQ10-NHS ester ([Kreisig et al., 2011]; [Dobslaff et al., 2012]). Excess BHQ10 was removed by further dialysis and the final DnaK concentration was adjusted to […]. To evaluate the labeling efficiency, we measured BHQ10 absorption at 515 nm, and calculated the ratio of dye to protein (mean labeling degree, nine BHQ10 molecules per DnaK).
We mixed 50 μl of the fluorescein-modified peptides (1.3 nM) with 50 μl of a 1:4 serial dilution series of DnaK-BHQ10 in modification buffer (0.8–13,000 nM) in a solid black 384-well plate and incubated the plates for 2 h as previously described ([Dobslaff et al., 2012]). To calculate the quenching effect, control mixtures (50 μl of the peptide solution and 50 μl of the modification buffer) were recorded five times. We recorded the fluorescence intensity on a Paradigm fluorescence reader using a fluorescence (fluo-rhod) detection cartridge (excitation wavelength = 485 ± 10 nm, emission wavelength = 535 ± 12.5 nm, integration time = 140 ms). The quenching effect was expressed as the percentage of the fluorescence intensity of the control quenched after the addition of DnaK-BHQ10.
Dissociation constants (Kd) were determined using SlideWrite v7.01. The quenching effects were plotted against the DnaK concentration (logarithmic abscissa). Kd values were calculated by non-linear regression using the dose–response logistical transition function of the program [y = a 0 + a 1/(1 + x/a 2) a3].

Gram-negative bacteria = conditions: ref Pöppel et al., 2015; Hirsch et al., 2019; cited from earlier work
From the text: Several previous investigations have addressed the AMP repertoire of L. sericata. […] More recent studies have characterized the defensin-family AMP lucifensin ([Andersen et al., 2010]; [Čeřovský et al., 2010]; [Čeřovský et al., 2011]) and the antifungal AMP lucimycin ([P ...

[1] = tested on: E. coli JM83 cells carrying plasmid pCH110; assay: Bacterial membrane permeabilization assay (β-galactosidase release); format: cell-based
Procedure: We tested the activity of the L. sericata AMPs against E. coli JM83, carrying plasmid pCH110 (Pharmacia-Amersham, Piscatway, NJ, USA).
Membrane permeabilization was quantified by measuring the activity of β-galactosidase released from E. coli JM83 cells carrying plasmid pCH110, which encodes a constitutive, cytoplasmic form of the enzyme ([Zdybicka-Barabas et al., 2013]). The peptides were pre-incubated for 15 min at 37°C in 23 μl 20 mM phosphate buffer (pH 6.8) before adding 2 μl of a suspension of mid-logarithmic phase E. coli cells (5 × 10^5 colony forming units, prepared in the same buffer). The final AMP concentrations were 0.0625–2 µM Lser-stomoxyn and up to 50 µM for the Lser-PRPs ([Pöppel et al., 2015]; [Hirsch et al., 2019]). After incubation for 45 min at 37°C, we added 220 μl 20 mM HEPES/150 mM NaCl (pH 7.5) and 5 μl 50 mM p-nitrophenyl-β-D-galactopyranoside. We incubated the samples at 37°C for a further 90 min and then measured the absorbance at 405 nm, which is proportional to the amount of released β-galactosidase. Live bacteria incubated in growth medium as well as dead bacteria after treatment with 5 µM synthetic cecropin B (Sigma-Aldrich) served as control samples. We set the perforation level of dead bacteria to 100%. All assays were performed six times in triplicate for each type of sample.

[2] = tested on: panel of 114 multi-drug resistant clinical isolates; parameters: method as in Hirsch et al., 2019; conditions: ref Hirsch et al., 2019; cited from earlier work
E. coli JM83 = assay: Atomic force microscopy of bacterial cell surface; format: cell-based; conditions: 90 min at 37°C
Procedure: Bacterial samples were prepared for atomic force microscopy (AFM) as previously described ([Zdybicka-Barabas et al., 2012]; [Zdybicka-Barabas et al., 2013]). Briefly, log-phase E. coli JM83 cells (OD600 = 0.2) in 100 µL lysogeny broth were incubated at 37°C for 90 min in the presence of individual or combined AMPs, or without AMPs as a negative control. We used concentrations of 50 μM Lser-PRP2, 50 μM Lser-PRP3, and 0.25 μM Lser-stomoxyn. The samples were centrifuged (8,000 × g, 4°C, 10 min), washed twice with apyrogenic water, resuspended in 5 μl apyrogenic water, applied to mica disks and allowed to dry at 28°C overnight.
The cell surface was imaged using a NanoScope V AFM (Veeco, Plainview, NY, USA) in Peak Force QNM operation mode and a silicon tip NSG 30 with a spring constant of 20 N/m (NT-MDT, Moscow, Russian Federation). The results were processed using Nanoscope Analysis v1.40 (Veeco). Three fields on each mica disk were imaged. The roughness values were measured over the entire bacterial cell surface in 3 × 3 µm areas. The average surface root mean square (RMS) roughness was calculated from 25 fields (300 × 300 nm). Section profiles and 3D images were produced using WSxM v5.0 ([Horcas et al., 2007]).

[3] = Figure 2 legend, N-terminal 5(6)-carboxyfluorescein peptide, DnaK-BHQ10
[4] = N-terminal 5(6)-carboxyfluorescein peptide (1.3 nM) + DnaK-BHQ10 (0.8–13,000 nM), 2 h, 384-well, pH 7.4, sigmoidal curve

EWRPHGSIGGSGLRPGRPQTLPPQRPRRPDFNGPRHRF-NH2 [Lser-PRP2]
maximum quenching effect (bacterial chaperone DnaK; [3]): > 80% | maximum quenching effect (bacterial chaperone DnaK; [4]): 85–88% | Kd (bacterial chaperone DnaK): 140 ± 10 nM

SPFVDRPRRPIQHNGPKPRIITNPPFNPNARPAW-NH2 [Lser-PRP3]
maximum quenching effect (bacterial chaperone DnaK; [3]): > 80% | maximum quenching effect (bacterial chaperone DnaK; [4]): 85–88% | Kd (bacterial chaperone DnaK): 300 ± 6 nM

GFRKRFNKLVKKVKHTIKETANVSKDVAIVAGSGVAVGAAMG [Lser-Stomoxyn, Lucilia sericata canonical α-helical antimicrobial peptide, synthesized at >95% purity with C-terminal amidation]
antibacterial activity (Gram-negative bacteria): particularly active against Gram-negative bacteria | bacterial membrane permeabilization ([1]; 0.25 µM, abstract): 1% | bacterial membrane permeabilization ([1]; 1 µM, 45 min at 37°C, bacteria killed by 5 µM cecropin B = 100%, n = 6): 12% | bacterial membrane permeabilization ([1]; 2 µM, 45 min at 37°C, bacteria killed by 5 µM cecropin B = 100%, n = 6): 40% | bacterial membrane permeabilization ([1]; 0.0625 or 0.125 µM, 45 min at 37°C, 20 mM phosphate pH 6.8, n = 6): little evidence of permeabilization | bacterial membrane permeabilization ([1]; 0.25–0.5 µM, 45 min at 37°C, bacteria killed by 5 µM cecropin B = 100%, n = 6): 1–2% | activity against clinical isolates [2]: showed activity against clinical isolates of E. coli, Enterobacter spp., Klebsiella spp., Salmonella enterica, Citrobacter freundii, and Acinetobacter spp., as well as multiple isolates of P. aeruginosa | Adhesion forces (E. coli JM83; 0.25 µM, mean ± SD of 25 fields, control 0.174 (± 0.04), ***p ≤ 0.001 vs control, letter a: differs from combination): 0.236 (± 0.079)^a*** nN | Roughness (E. coli JM83; 0.25 µM, mean ± SD of 25 fields, control 0.843 (± 0.22), ***p ≤ 0.001 vs control, letter b: differs from combination): 1.102 (± 0.373)^b*** nm | Young's modulus (E. coli JM83; 0.25 µM, mean ± SD of 25 fields, control 2458 (± 24.52), **p ≤ 0.01 vs control): 2601 (± 32.19)** MPa | flagella (E. coli JM83; Lser-stomoxyn 0.25 µM alone): lost their flagella | cell surface granularity vs controls (E. coli JM83; Lser-stomoxyn 0.25 µM or Lser-PRP2 50 µM alone): considerably more granular than that of the controls
